Each structure is given as a SMILES string.

The subject of one experiment is human FK-binding protein. The experiment in a line: Inhibition of rotamase activity of FK-binding protein. In kind it is biochemical.
For experiment [1], the system named is pathogenic filamentus fungal organisms. The experiment in a line: Antimicrobial activity (general statement).
A further experiment has as its system mouse T lymphocytes. The experiment in a line: Immunosuppressive activity (proliferation of T lymphocytes stimulated with ionomycin plus PMA, tritiated thymidine uptake). In kind it is cell-based, mouse (C57BI/6). The settings on record: general statement; no value given. As for the experimental part: A positive sample in this assay will inhibit-T-cell proliferation, as indicated by reduced tritiated thymidine uptake.
Spleens from C57BI/6 mice are taken under sterile conditions and gently dissociated in ice-cold RPMI 1640 (trademark) culture medium (GIBCO (trademark)) supplemented with 10% heat-inactivated fetal calf serum (GIBCO (trademark)). Cells are pelleted by centrifugation at 1500 rpm for 8 minutes. Contaminating red cells are removed by treating the pellet with ammonium chloride lysing buffer (GIBCO (trademark)) for 2 minutes at 4° C. Cold medium is added and cells are again centrifuged at 1500 rpm for 8 minutes. […]
Purified T lymphocytes are resuspended at 10^6 cells/ml in complete culture medium composed of RPMI 1640 (trademark) medium with 10% heat-inactivated fetal calf serum, […] glutamine, 1 mM sodium pyruvate, 20 µm 2-mercaptoethanol and 50 μg/ml gentamicin. […] The proliferation of T lymphocytes is assessed by measurement of tritiated […] incorporation. […] Radioactivity of filter discs corresponding to individual wells is measured by standard liquid scintillation counting method (Beta plate counter). Mean counts per minute of replicate wells are calculated and the results expressed as percent inhibition of tritiated thymidine uptake (proliferation) as follows: [formula]

On to `CCC1C=C(C)CC(C)CC(OC)C2OC(O)(CC(=O)N3CCCCC3C(=O)OC(C(C)=CC3CCC(O)C(OC)C3)C(C)C(O)CC1=O)C(C)CC2OC` (stereo not drawn) [compound of the formula I, C9 -desoxo-FK-520], for which the “inhibition of the rotamase activity of human FK-binding protein” value in the experiment on human FK-binding protein is recorded as “inhibits the rotamase activity of human FK-binding protein”. The antimicrobial activity result in experiment [1] is recorded as “has antimicrobial activity”. Also, the immunosuppressive activity result in the experiment on mouse T lymphocytes is “has immunosuppressive activity”.

The values are drawn from US5494820A, “Streptomyces braegensis strain and its cultivation in a process for producing C9 -desoxo-FK-520” (Pfizer Inc., priority 1994, dated 1996).
